From ChEMBL document CHEMBL5236590, “Discovery of Novel N-(5-(Pyridin-3-yl)-1H-indazol-3-yl)benzamide Derivatives as Potent Cyclin-Dependent Kinase 7 Inhibitors for the Treatment of Autosomal Dominant Polycystic Kidney Disease” (J Med Chem, 2022)
pIC50: −log10 of the molar value.

Experiments:
[1] = target: T1, Cyclin-dependent kinase 7 (Homo sapiens, UniProt P50613); assay: Inhibition of CDK7 (unknown origin) assessed as phosphorylation of ULight 4EBP1 peptide substrate measured after 2 hrs by FRET-based LANCE Ultra KinSelect assay
[2] = target: T2, Cyclin-dependent kinase 2 (Homo sapiens, UniProt P24941); assay: Inhibition of CDK2 (unknown origin) assessed as phosphorylation of ULight 4EBP1 peptide substrate measured after 2 hrs by FRET-based LANCE Ultra KinSelect assay
[3] = target: T2, Cyclin-dependent kinase 2; assay: Inhibition of CDK2 (unknown origin) assessed as phosphorylation of ULight 4EBP1 peptide substrate at 10 uM measured after 2 hrs by FRET-based LANCE Ultra KinSelect assay
[4] = target: T1, Cyclin-dependent kinase 7; assay: Inhibition of CDK7 (unknown origin) assessed as phosphorylation of ULight 4EBP1 peptide substrate at 10 uM measured after 2 hrs by FRET-based LANCE Ultra KinSelect assay relative to control
THP-1 = assay: Cytotoxicity against human THP-1 cells assessed as cell viability measured after 24 hrs by CCK-8 assay; format: functional, cell-based; details: THP-1, 24 h

T1 sequence (P50613 whole entry): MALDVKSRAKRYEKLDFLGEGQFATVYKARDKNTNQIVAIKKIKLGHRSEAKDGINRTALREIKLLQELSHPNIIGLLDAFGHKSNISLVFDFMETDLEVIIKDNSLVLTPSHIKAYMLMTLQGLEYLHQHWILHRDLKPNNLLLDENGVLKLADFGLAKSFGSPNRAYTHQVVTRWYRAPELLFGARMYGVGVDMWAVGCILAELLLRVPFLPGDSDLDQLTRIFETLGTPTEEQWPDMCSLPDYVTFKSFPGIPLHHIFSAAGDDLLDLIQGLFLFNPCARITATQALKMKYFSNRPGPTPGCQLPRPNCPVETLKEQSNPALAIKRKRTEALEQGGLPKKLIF

| Compound | pIC50 [1] | pIC50 [2] | also measured |
| --- | --- | --- | --- |
| O=C(Nc1n[nH]c2ccc(-c3cccnc3)cc12)c1ccccc1 | 5.12 | – | – |
| NC[C@@H](CNc1cncc(-c2ccc3[nH]nc(NC(=O)c4ccccc4)c3c2)c1)c1ccccc1 | 6.40 | 6.72 | – |
| CNC(=O)c1cncc(-c2ccc3[nH]nc(NC(=O)c4ccccc4)c3c2)c1 | 5.42 | – | – |
| C=CC(=O)Nc1ccc(C(=O)Nc2n[nH]c3ccc(-c4cncc(NC(=O)[C@@H](N)Cc5ccccc5)c4)cc23)cc1 | 8.15 | 6.32 | – |
| O=C(Nc1n[nH]c2ccc(-c3cncc(NC[C@@H](CO)c4ccccc4)c3)cc12)c1ccccc1 | 6.15 | 6.09 | – |
| O=C(Nc1n[nH]c2ccc(-c3cncc(NCCO)c3)cc12)c1ccccc1 | 5.77 | – | – |
| C=CC(=O)Nc1ccc(C(=O)Nc2n[nH]c3ccc(-c4cncc(NC(=O)[C@@H](N)c5ccccc5)c4)cc23)cc1 | 7.19 | – | – |
| N[C@@H](COc1cncc(-c2ccc3[nH]nc(NC(=O)c4ccccc4)c3c2)c1)Cc1ccccc1 | 5.62 | 6.30 | – |
| O=C(Nc1n[nH]c2ccc(-c3cncc(NC[C@H](CO)Cc4ccccc4)c3)cc12)c1ccccc1 | 5.58 | 5.62 | – |
| O=C(Nc1n[nH]c2ccc(-c3cncc(NC[C@H](CO)c4ccccc4)c3)cc12)c1ccccc1 | 5.76 | 6.24 | – |
| N[C@H](COc1cncc(-c2ccc3[nH]nc(NC(=O)c4ccccc4)c3c2)c1)c1ccccc1 | 6.16 | 6.92 | – |
| N[C@@H](C(=O)Nc1cncc(-c2ccc3[nH]nc(NC(=O)c4ccccc4)c3c2)c1)c1ccccc1 | – | – | inhibition [3]: 29%; inhibition [4]: 34% |
| NCC(=O)Nc1cncc(-c2ccc3[nH]nc(NC(=O)c4ccccc4)c3c2)c1 | 5.60 | – | – |
| N[C@H](Cc1ccccc1)C(=O)Nc1cncc(-c2ccc3[nH]nc(NC(=O)c4ccccc4)c3c2)c1 | 5.68 | 6.26 | – |
| C=CC(=O)Nc1ccc(C(=O)Nc2n[nH]c3ccc(-c4cncc(N[C@H](CO)Cc5ccccc5)c4)cc23)cc1 | 8.30 | 6.23 | – |
| N[C@@H](Cc1ccccc1)C(=O)Nc1cncc(-c2ccc3[nH]nc(NC(=O)c4ccccc4)c3c2)c1 | 5.87 | 5.98 | – |

| Compound | pIC50 [1] | pIC50 [2] | also measured |
| --- | --- | --- | --- |
| C=CC(=O)Nc1ccc(C(=O)Nc2n[nH]c3ccc(-c4cncc(N[C@H](CO)c5ccccc5)c4)cc23)cc1 | 7.72 | 6.12 | – |
| O=C(Nc1n[nH]c2ccc(-c3cncc(NC[C@H](O)c4ccccc4)c3)cc12)c1ccccc1 | 6.51 | 6.57 | – |
| CN(C)C/C=C/C(=O)Nc1ccc(C(=O)Nc2cccc(Nc3ncc(Cl)c(-c4c[nH]c5ccccc45)n3)c2)cc1 | – | – | pIC50 (THP-1): 4.11 |
| N[C@H](C(=O)Nc1cncc(-c2ccc3[nH]nc(NC(=O)c4ccccc4)c3c2)c1)c1ccccc1 | 5.50 | – | inhibition [3]: 34% |
| O=C(Nc1n[nH]c2ccc(-c3cncc(NC[C@@H](O)c4ccccc4)c3)cc12)c1ccccc1 | 6.36 | 6.10 | – |
| C=CC(=O)Nc1ccc(C(=O)Nc2n[nH]c3ccc(-c4cncc(NC[C@H](O)c5ccccc5)c4)cc23)cc1 | 8.22 | 6.04 | – |
| Cc1cncc(-c2ccc3[nH]nc(NC(=O)c4ccccc4)c3c2)c1 | 5.58 | – | – |
| NCCNc1cncc(-c2ccc3[nH]nc(NC(=O)c4ccccc4)c3c2)c1 | 5.81 | – | – |
| Nc1cncc(-c2ccc3[nH]nc(NC(=O)c4ccccc4)c3c2)c1 | – | – | inhibition [4]: 45% |
| COc1cncc(-c2ccc3[nH]nc(NC(=O)c4ccccc4)c3c2)c1 | 5.26 | – | – |
| N[C@@H](COc1cncc(-c2ccc3[nH]nc(NC(=O)c4ccccc4)c3c2)c1)c1ccccc1 | 5.31 | – | inhibition [3]: 48% |
| N[C@H](COc1cncc(-c2ccc3[nH]nc(NC(=O)c4ccccc4)c3c2)c1)Cc1ccccc1 | 6.47 | 7.01 | – |
| O=C(Nc1n[nH]c2ccc(-c3cncc(O)c3)cc12)c1ccccc1 | 5.14 | – | – |
| O=C(Nc1n[nH]c2ccc(-c3cncc(NC[C@@H](CO)Cc4ccccc4)c3)cc12)c1ccccc1 | 6.17 | 6.22 | – |
| NCCOc1cncc(-c2ccc3[nH]nc(NC(=O)c4ccccc4)c3c2)c1 | 5.70 | – | – |
